Laboratory results as given in paper PMC12892976, “Alkylation-based optimization of antifungal FPPS inhibitors yields a potent, broad-spectrum lipophilic zoledronate derivative” (mBio, 2025).

Key:
[1] = system: Paraphyton cookei; test: MIC broth microdilution (CLSI); type: cell-based; settings: Paraphyton cookei R-639
Description: (§1) Antifungal susceptibility was determined by broth microdilution according to the CLSI guidelines described in M27-Ed4 ([16]).

[2] = system: Candida auris; test: checkerboard drug interaction (FICI, MICc); type: cell-based;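 further: simplified diagonal checkerboard screen pairing antifungals with FPPS inhibitors, with FICI computed under the Loewe additivity model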
Description: (§2) Drug interactions between antifungals and FPPS inhibitors were investigated using a simplified checkerboard diagonal screening method ([45]). […] FICIs were determined according to the Loewe additivity model ([17]).

[3] = system: Microsporum canis; test: MIC broth microdilution (CLSI); settings: Microsporum canis R-232
Description: as §1

[4] = system: Pichia kudriavzevii; test: MIC broth microdilution (CLSI); type: cell-based; settings: Pichia kudriavzavii ATCC 6258
Description: (§3) Antifungal susceptibility was determined by broth microdilution according to the CLSI guidelines described in M27-Ed4 ([16]). […] MFC was determined by back-plating drug-treated cultures from MIC broths onto SDA plates. The MFC was defined as the lowest concentration from which no colonies could be cultured.

[5] = system: Nannizzia gypsea; test: checkerboard drug interaction (FICI, MICc);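 further: simplified diagonal checkerboard screen pairing antifungals with FPPS inhibitors, FICI derived using the Loewe additivity model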
Description: as §2

[6] = system: Aspergillus udagawae; test: MIC broth microdilution (CLSI); type: cell-based; settings: Aspergillus udagawae 8G81
Description: as §1

[7] = system: Candida dubliniensis; test: MIC broth microdilution (CLSI); type: cell-based; settings: Candida dubliniensis M230642
Description: as §1

[8] = system: Mucor circinelloides; test: checkerboard drug interaction (FICI, MICc); type: cell-based;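 further: simplified diagonal checkerboard screen pairing antifungals with FPPS inhibitors, FICI calculated under the Loewe additivity model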
Description: as §2

[9] = system: Candida parapsilosis; test: MIC broth microdilution (CLSI); type: cell-based; settings: Candida parapsilosis ATCC 22018
Description: as §3

[10] = system: Aspergillus lentulus; test: checkerboard drug interaction (FICI, MICc); type: cell-based;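 further: simplified diagonal checkerboard screen pairing antifungals with FPPS inhibitors, with the interaction index calculated under the Loewe additivity model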
Description: as §2

[11] = system: Pichia kudriavzevii; test: checkerboard drug interaction (FICI, MICc); type: cell-based;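 further: antifungal plus FPPS inhibitor interactions tested in a simplified diagonal checkerboard screen, with FICI calculated under the Loewe additivity model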
Description: as §2

[12] = system: Cryptococcus deneoformans; test: MIC broth microdilution (CLSI); type: cell-based; settings: Cryptococcus deneoformans JEC21
Description: as §1

[13] = system: Fusarium solani; test: checkerboard drug interaction (FICI, MICc); type: cell-based;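 further: simplified diagonal checkerboard screen pairing antifungals with FPPS inhibitors, FICI derived under the Loewe additivity model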
Description: as §2

[14] = system: Candida auris; test: MIC broth microdilution (CLSI); type: cell-based; settings: Candida auris CDC-0384
Description: as §1

[15] = system: Rhizopus oryzae; test: checkerboard drug interaction (FICI, MICc); type: cell-based;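 further: simplified diagonal checkerboard screen pairing antifungals with FPPS inhibitors, FICI calculated under the Loewe additivity model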
Description: as §2

[16] = system: Aspergillus udagawae; test: checkerboard drug interaction (FICI, MICc); type: cell-based;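 further: simplified diagonal checkerboard screen pairing antifungals with FPPS inhibitors, FICI calculated using the Loewe additivity model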
Description: as §2

[17] = system: Aspergillus parafelis; test: checkerboard drug interaction (FICI, MICc);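 further: simplified diagonal checkerboard screen pairing antifungals with FPPS inhibitors, FICI calculated under the Loewe additivity model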
Description: as §2

[18] = system: Candida tropicalis; test: MIC broth microdilution (CLSI); type: cell-based; settings: Candida tropicalis M230640
Description: as §1

[19] = system: Paraphyton cookei; test: checkerboard drug interaction (FICI, MICc);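 further: simplified diagonal checkerboard screen pairing an antifungal with an FPPS inhibitor, FICI computed under the Loewe additivity model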
Description: as §2

CCCCCCCCCCn1cc[n+](CC(O)(P(=O)(O)O)P(=O)(O)O)c1 [10-ZOL, Decyl-zoledronate] was tested, and the “MIC / MEC” value [1] was 0.5 µg/mL, the FICI ([2]; 5FC:10-ZOL) was 1.5 and the FICI ([2]; FLC:10-ZOL) was 0.5. For the same compound, the “bisphosphonate MICc” value ([2]; with 5FC) was 1, the “bisphosphonate MICc” value ([2]; with AMB) was 0.25 and the “bisphosphonate MICc” value ([2]; with CAS) was 0.5. For the same compound, the “bisphosphonate MICc” value ([2]; with FLC) was 0.5, the “bisphosphonate MICc” value ([2]; with ITR) was 0.125 and the “bisphosphonate MICc” value ([2]; with KET) was 1. For the same compound, the “bisphosphonate MICc” value ([2]; with VOR) was 1, the “MIC / MEC” value [3] was 1 µg/mL and the “MIC / MEC” value [4] was 4 µg/mL. It also gave an FICI ([5]; AMB:10-ZOL) of 2, an FICI ([5]; CAS:10-ZOL) of 2.25 and an FICI ([5]; ITR:10-ZOL) of 1.5. The FICI ([5]; VOR:10-ZOL) was 1.5, the “bisphosphonate MICc” value ([5]; with 5FC) was 0.5 and the “bisphosphonate MICc” value ([5]; with AMB) was 0.5. For the same compound, the “bisphosphonate MICc” value ([5]; with CAS) was 1, the “bisphosphonate MICc” value ([5]; with FLC) was 0.25 and the “bisphosphonate MICc” value ([5]; with ITR) was 0.25. For the same compound, the “bisphosphonate MICc” value ([5]; with KET) was 0.25, the “bisphosphonate MICc” value ([5]; with VOR) was 0.25 and the “MIC / MEC” value [6] was 1 µg/mL. The “MIC / MEC” value [7] was 1 µg/mL, the FICI ([8]; 5FC:10-ZOL) was at least 4 and the FICI ([8]; AMB:10-ZOL) was 2. The FICI ([8]; CAS:10-ZOL) was at least 4, the FICI ([8]; ITR:10-ZOL) was 1.5 and the “bisphosphonate MICc” value ([8]; with 5FC) was 1. For the same compound, the “bisphosphonate MICc” value ([8]; with AMB) was 1, the “bisphosphonate MICc” value ([8]; with CAS) was 0.5 and the “bisphosphonate MICc” value ([8]; with FLC) was 1. The “bisphosphonate MICc” value ([8]; with ITR) was 1, the “bisphosphonate MICc” value ([8]; with KET) was 0.125 and the “bisphosphonate MICc” value ([8]; with VOR) was 0.125. The “MIC / MEC” value [9] was 1 µg/mL, the FICI ([10]; 5FC:10-ZOL) was at least 4 and the FICI ([10]; CAS:10-ZOL) was 2. For the same compound, the FICI ([10]; FLC:10-ZOL) was 1.02, the “bisphosphonate MICc” value ([10]; with 5FC) was 1 and the “bisphosphonate MICc” value ([10]; with AMB) was 2. For the same compound, the “bisphosphonate MICc” value ([10]; with CAS) was 2, the “bisphosphonate MICc” value ([10]; with FLC) was 2 and the “bisphosphonate MICc” value ([10]; with ITR) was 1. For the same compound, the “bisphosphonate MICc” value ([10]; with KET) was 1, the “bisphosphonate MICc” value ([10]; with VOR) was 1 and the FICI ([11]; AMB:10-ZOL) was 1. For the same compound, the FICI ([11]; KET:10-ZOL) was 1.5, the FICI ([11]; VOR:10-ZOL) was 1.03 and the “bisphosphonate MICc” value ([11]; with 5FC) was 1. For the same compound, the “bisphosphonate MICc” value ([11]; with AMB) was 2, the “bisphosphonate MICc” value ([11]; with CAS) was 0.5 and the “bisphosphonate MICc” value ([11]; with FLC) was 0.5. The “bisphosphonate MICc” value ([11]; with ITR) was 0.25, the “bisphosphonate MICc” value ([11]; with KET) was 2 and the “bisphosphonate MICc” value ([11]; with VOR) was 0.125. For the same compound, the “MIC / MEC” value [12] was 1 µg/mL, the FICI ([13]; 5FC:10-ZOL) was at least 4 and the FICI ([13]; CAS:10-ZOL) was 2. For the same compound, the FICI ([13]; VOR:10-ZOL) was 0.53, the “bisphosphonate MICc” value ([13]; with 5FC) was 1 and the “bisphosphonate MICc” value ([13]; with AMB) was 0.25. The “bisphosphonate MICc” value ([13]; with CAS) was 4, the “bisphosphonate MICc” value ([13]; with FLC) was 0.5 and the “bisphosphonate MICc” value ([13]; with ITR) was 0.5. The “bisphosphonate MICc” value ([13]; with KET) was 2, the “bisphosphonate MICc” value ([13]; with VOR) was 0.125 and the “MIC / MEC” value [14] was 2 µg/mL. The FICI ([15]; 5FC:10-ZOL) was at least 4, the FICI ([15]; CAS:10-ZOL) was at least 4 and the FICI ([15]; VOR:10-ZOL) was 1. The “bisphosphonate MICc” value ([15]; with 5FC) was 2, the “bisphosphonate MICc” value ([15]; with AMB) was 0.25 and the “bisphosphonate MICc” value ([15]; with CAS) was 0.5. The “bisphosphonate MICc” value ([15]; with FLC) was 2, the “bisphosphonate MICc” value ([15]; with ITR) was 2 and the “bisphosphonate MICc” value ([15]; with KET) was 2. The “bisphosphonate MICc” value ([15]; with VOR) was 2, the FICI ([16]; 5FC:10-ZOL) was 1 and the FICI ([16]; CAS:10-ZOL) was 1. The FICI ([16]; FLC:10-ZOL) was 1.02, the FICI ([16]; ITR:10-ZOL) was 0.5 and the FICI ([16]; VOR:10-ZOL) was 1.03. For the same compound, the “bisphosphonate MICc” value ([16]; with 5FC) was 0.5, the “bisphosphonate MICc” value ([16]; with AMB) was 0.5 and the “bisphosphonate MICc” value ([16]; with CAS) was 0.5. The “bisphosphonate MICc” value ([16]; with FLC) was 1, the “bisphosphonate MICc” value ([16]; with ITR) was 0.25 and the “bisphosphonate MICc” value ([16]; with KET) was 0.5. The “bisphosphonate MICc” value ([16]; with VOR) was 1, the FICI ([17]; 5FC:10-ZOL) was at least 4 and the FICI ([17]; CAS:10-ZOL) was at least 4. For the same compound, the FICI ([17]; FLC:10-ZOL) was 0.52, the “bisphosphonate MICc” value ([17]; with 5FC) was 2 and the “bisphosphonate MICc” value ([17]; with AMB) was 2. For the same compound, the “bisphosphonate MICc” value ([17]; with CAS) was 1, the “bisphosphonate MICc” value ([17]; with FLC) was 2 and the “bisphosphonate MICc” value ([17]; with ITR) was 4. For the same compound, the “bisphosphonate MICc” value ([17]; with KET) was 1, the “bisphosphonate MICc” value ([17]; with VOR) was 2 and the “MIC / MEC” value [18] was 2 µg/mL. For the same compound, the FICI ([19]; 5FC:10-ZOL) was at least 4, the FICI ([19]; AMB:10-ZOL) was 1.5 and the FICI ([19]; CAS:10-ZOL) was 1.5. The FICI ([19]; FLC:10-ZOL) was 0.53 and the FICI ([19]; ITR:10-ZOL) was 0.53.
